Numbered stars: 1 amine (or outer) side, 2 acyl side, 3 side chain; on linkers, the order of the positions; unused ones are H or OH. Bridge positions count the residues as written; N and C are the ends. Square brackets hold non-standard residues; d marks the D form. Peptide text beside a SMILES is read from it. ξ: configuration not given here. X1 = C#CCCC[C@H](O[*:2])C(C)(C)C(=O)[*:1]; Hmp(2R,3S) = CC[C@H](C)[C@@H](O)C(=O)O; NMeF = CN[C@@H](Cc1ccccc1)C(=O)O; ξNMeF = CNC(Cc1ccccc1)C(=O)O; NMeV = CN[C@H](C(=O)O)C(C)C; Hiv = CC(C)[C@H](O)C(=O)O; ξNMeV = CNC(C(=O)O)C(C)C; ξP = O=C(O)C1CCCN1
Assays:
Leishmania donovani = experiment: Antileishmanial activity against Leishmania donovani WR2801 axenic amastigotes after 6 days by XTT assay; format: functional, organism-based; conditions: WR2801, 144 h
Plasmodium falciparum = experiment: Antimalarial activity against chloroquine-resistant Plasmodium falciparum W2 infected in human type A positive erythrocytes by [3H]-hypoxanthine incorporation assay; format: functional, organism-based
Trypanosoma cruzi = experiment: Antitrypanosomal activity against transgenic beta-galactosidase-expressing Trypanosoma cruzi Tulahuen clone C4 ATCC PRA33 assessed as growth inhibition at 10 ug/ml after 4 days relative to control; format: functional; conditions: Tulahuen clone C4 ATCC PRA33, 96 h, read-out: GI
NCI-H460 = experiment: Cytotoxicity against human H460 cells at 30 uM after 48 hrs by MTT assay; format: cell-based; conditions: nci-h460, 48 h

`C#CCCC[C@H]1OC(=O)CNC(=O)[C@@H](Cc2ccccc2)N(C)C(=O)[C@@H]2CCCN2C(=O)[C@H]([C@@H](C)CC)N(C)C(=O)[C@H](C)NC(=O)[C@H](C)OC(=O)C1(C)C` was tested, and the IC50 (Leishmania donovani) was over 10 µM, the IC50 (Plasmodium falciparum) was 3.6 µM and the inhibition of growth at 10 µg/mL (Trypanosoma cruzi) was 12%. For the same compound, the Activity (NCI-H460) was “Non-Toxic”.

`C#CCCC[C@@H]1OC(=O)[C@H](C)NC(=O)[C@H](Cc2ccc(OC)cc2)N(C)C(=O)[C@@H]2CCCN2C(=O)[C@H](Cc2ccccc2)N(C)C(=O)[C@H](C(C)C)NC(=O)C1(C)C` showed an IC50 (Leishmania donovani) of over 10 µM, an IC50 (Plasmodium falciparum) of 8 µM and an inhibition of growth at 10 µg/mL (Trypanosoma cruzi) of 7%. For the same compound, the Activity (NCI-H460) was “Non-Toxic”.

Work on `C#CCCC[C@@H]1OC(=O)CNC(=O)[C@H](Cc2ccccc2)N(C)C(=O)[C@@H]2CCCN2C(=O)[C@@H]([C@@H](C)CC)OC(=O)[C@H](C(C)C)N(C)C(=O)[C@H](C(C)C)NC(=O)C1(C)C` (V[NMeV][Hmp(2R,3S)]P[NMeF]G; linker N-C via X1) yielded an IC50 (Leishmania donovani) of 2.6 µM, an IC50 (Plasmodium falciparum) of 3.5 µM and an inhibition of growth at 10 µg/mL (Trypanosoma cruzi) of 60%. The Activity (NCI-H460) was “Non-Toxic”.

For `C#CCCC[C@@H]1OC(=O)CNC(=O)C(Cc2ccccc2)N(C)C(=O)C2CCCN2C(=O)[C@H](C(C)C)OC(=O)C(C(C)C)N(C)C(=O)[C@H](C(C)C)NC(=O)C1(C)C` (some centres undefined) (V[ξNMeV][Hiv][ξP][ξNMeF]G; linker N-C via X1), the IC50 (Plasmodium falciparum) was 10 µM and the Activity (NCI-H460) was “Non-Toxic”.

From ChEMBL document CHEMBL4190194, “Dudawalamides A-D, Antiparasitic Cyclic Depsipeptides from the Marine Cyanobacterium Moorea producens” (J Nat Prod, 2017)
